For 60 compounds, TGI and GI50 results are on record in PubChem BioAssay (NCI).

Holding throughout (assay): growth of human tumour cells (NCI), 48 h
The test system of experiment [1] is TK-10 renal.
Experiment [2] deals with U251 CNS.
The subject of experiment [3] is M14 melanoma.
For experiment [4], the system named is DLD-1 colon.
Experiment [5] deals with HOP-18 NSCLC.
The test system of experiment [6] is SNB-78 CNS.
Experiment [7] concerns DMS 273 small cell lung.
Experiment [8] has as its system LXFL 529 NSCLC.
Experiment [9] concerns KM20L2 colon.
Experiment [10] concerns M19-MEL melanoma.

Molecules are shown by their SMILES. Values joined by “and” are separate entries in the source; they are usually repeats but may differ in a detail not shown here. Equal entries are not always repeated.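 Results reflect a 48-hour exposure of cells in 96-well plates to compound at five concentrations. Abbreviation: GI50, concentration required for 50% inhibition of growth. TGI is the concentration that stops growth completely.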 Where a SMILES comes first, the peptide text is derived from it. The star is where a group is joined. Boc = CC(C)(C)OC(=O)*; Bn = c1ccc(C*)cc1

As for `CC(C)(C)n1c(=O)n2n(c1=O)C1c3cccc4cccc(c34)C2C2c3cccc4cccc(c34)C1n1c(=O)n(C(C)(C)C)c(=O)n12`, the TGI in experiment [1], in experiment [2] and in experiment [3] was above 100 µM each time.
Take `O=C(O)C12CCC(CC1=O)C2` (stereo not given): the TGI in experiment [1], in experiment [2] and in [3] was above 100 µM in each case.
Take `CCCCC1(O)CC2CC1C(C)C2(C)C` (stereo not given): the TGI in experiment [1], in [2] and in experiment [3] was above 100 µM throughout.
With `O=C1C=C(c2ccccc2)O/C1=C\C(=O)c1ccc(Cl)cc1`, the TGI in experiment [1] was determined as 35 µM; in experiment [2], 29.9 µM; in experiment [3], 41.5 µM.
In the case of `CN1CCN(Cc2nc3c(s2)CCc2sccc2-3)CC1`, the TGI in [1], in experiment [2] and in [3] was above 100 µM in each case.
Take `COC(=O)Cn1c(=O)oc2nc(-c3ccccc3)cc(C(F)(F)F)c21`: the TGI in experiment [1], in experiment [2] and in [3] was above 100 µM each time.
For `O=C1CC2CC(CC3(CO3)C2)C1F` (stereo not given), the TGI in experiment [1], in [2] and in [3] was above 100 µM in each case.
On to `CC(=O)Oc1ccc2cc(-c3ccc(OC(C)=O)c(OC(C)=O)c3)c(=O)oc2c1`, for which the TGI in [1], in experiment [2] and in [3] was above 100 µM in each case.
Consider `CN(C)CC1CCC/C(=C\c2ccccc2)C1=O` (stereo not given), for which the values for the TGI in experiment [1] and in experiment [2] were 7.85 µM and 28.7 µM, respectively.
Consider `Nc1cc(Cl)ccc1SSc1ccc(Cl)cc1N`, for which the figures for the TGI in experiment [1], in [2] and in experiment [3] were 40.8 µM, 15.4 µM and 21.7 µM, respectively.
For `C=CC1(c2ccc3ccccc3c2)OCC(CC)O1` (stereo not given), the TGI in [1], in experiment [2] and in [3] was above 100 µM in each case.
Turning to `O=c1[nH]c(=O)n(CCOc2ccc(Cl)cc2)cc1Nc1ccccc1`, the TGI in experiment [2] and in [3] was above 100 µM each time.
With `CCNc1nnc(-c2ccccc2Nc2ccccc2-c2nnc(NCC)s2)s1`, the results for the TGI in [1], in experiment [2] and in experiment [3] were above 57.6 µM, above 55.4 µM and 40 µM, respectively.
On to `COc1cc(C2OC[C@@H]3C(=O)OC[C@H]23)cc(O)c1OC` (stereo not given in full), for which the TGI in experiment [1], in experiment [2] and in [3] was above 100 µM throughout.
`O=C1/C(=C/c2ccc(O)c(O)c2)CC/C1=C\c1ccc(O)c(O)c1`: the TGI in [1] is above 100 µM; in experiment [2], 27.4 µM; in experiment [3], 9.56 µM.
With `C#CCOCn1cc(C)c(=O)[nH]c1=O`, the TGI in [1], in experiment [2] and in [3] was above 100 µM throughout.
Regarding `C=CCCCC1(C)CCNC1=S` (stereo not given), the TGI in experiment [1], in [2] and in experiment [3] was above 100 µM in each case.
For `Cc1cc(S(=O)(=O)NC(=NCCc2ccccc2)NN)c(S)cc1Cl`, the figures for the TGI in experiment [1], in experiment [2] and in [3] were above 100 µM, 32.4 µM and 91.5 µM, respectively.
For `CCC1CCC2c3c([nH]c4ccc(C)cc34)C3C(=O)N(N(C)C)C(=O)C3C2C1` (stereo not given), the TGI in [1], in experiment [2] and in experiment [3] was above 100 µM throughout.
For `C/C=C\C(CC(=O)OC)CC(=O)N(CCC1CN(S(=O)(=O)C(F)(F)F)c2ccccc21)Cc1ccc(OC)cc1OC` (stereo not given), the TGI in experiment [1], in experiment [2] and in [3] was above 100 µM throughout.
As for `NC(=O)CCC(NC(=O)c1c2ccccc2nc2ccccc12)C(=O)O` (stereo not given), the TGI in experiment [1], in experiment [2] and in experiment [3] was above 100 µM each time.
With `CC(C)(C)[Si](C)(C)OCC1OC(n2ccc(=O)[nH]c2=O)C(O[Si](C)(C)C(C)(C)C)[C@]12O[C@@H]2CO` (stereo not given in full), the TGI in experiment [1] amounted to 31 µM; in experiment [2], 42.6 µM; in experiment [3], 43.2 µM.
The corresponding values for `S=C1CC(c2ccccc2)Sc2cc(Cl)ccc2N1` (stereo not given) are 38.9 µM, 17.7 µM and above 100 µM.
Regarding `CN(C)C(=NC#N)N(Cc1ccccc1)Cc1ccccc1`, the TGI in experiment [4], in experiment [5], in [6], in experiment [7], in [1] and in [8] was above 100 µM in each case. Besides, the TGI in [2], in experiment [3], in experiment [9] and in [10] was above 100 µM throughout.
`Cc1cc2c(cc1Cl)SC(NNC1=NCCN1)=NS2(=O)=O`: the TGI in [1], in experiment [2] and in experiment [3] was above 10 µM each time.
On to `O=S(=O)(c1cc(Cl)ccc1Cl)N1CCN(c2cccc(Cl)c2)CC1`, for which the TGI in experiment [1] and in [2] was above 100 µM throughout.
Take `Cc1ccsc1C(=S)Nc1ccc(Cl)c(/C=N/OC(C)C)c1`: the TGI in experiment [1], in experiment [2] and in experiment [3] was above 100 µM each time.
With `COC(=O)/N=[N+](\[O-])C(c1ccccc1)c1ccccc1`, the TGI in experiment [1], in [2] and in [3] was above 100 µM throughout.
For `C=C(Cl)C(C)(Cl)CCC(Cl)C(C)C` (stereo not given), the TGI in [1], in experiment [2] and in experiment [3] was above 100 µM throughout.
Consider `Cc1cc(C)nc(NS(=O)(=O)c2ccc(NC(=O)NC(F)(F)F)cc2)n1`, for which the TGI in experiment [1], in experiment [2] and in experiment [3] was above 100 µM each time.
As to `CCCCCCCCCCOCCOCCOCCOCCCCC(O)CCCCCCCC1=C[C@H](C)OC1=O` (stereo not given in full), the TGI in experiment [1] was determined as 21.4 µM; in experiment [2], 23.5 µM; in experiment [3], 35.7 µM.
The corresponding values for `CN(C)c1ccc(/C=C(\NC(=O)c2ccccc2)C(=O)Nc2cccc(C(=O)NCCCO)c2)cc1` are above 100 µM, above 100 µM and above 100 µM.
In the case of `C[N+]12C=CC=C1C(N1CCCC1)c1scc(-c3ccc(F)cc3)c12` (stereo not given), the TGI in experiment [2] and in experiment [3] was above 100 µM in each case.
On to `CC1=CC(=O)N(n2c(Cc3ccc(Cl)cc3)n[nH]c2=O)C1=O`, for which the TGI in experiment [1], in experiment [2] and in [3] was above 100 µM in each case.
On to `O=c1[nH]nc(Cc2ccccc2)n1/N=C/c1ccc([N+](=O)[O-])cc1`, for which the TGI in experiment [1] and in experiment [2] was above 100 µM each time.
With `CC1=N[C@@](C)(C2CC3C=CC2C3=O)COC1=O` (stereo not given in full), the TGI in [1], in [2] and in [3] was above 100 µM in each case.
Turning to `Cc1cn(C2CCN(CC3COC(C)(C)O3)O2)c(=O)[nH]c1=O` (stereo not given), the TGI in experiment [1], in [2] and in experiment [3] was above 100 µM in each case.
As for `COC(=O)[C@]12CSC[C@H]1C[C@H](c1cccc3ccccc13)N2`, the TGI in experiment [2] and in [3] was above 100 µM each time.
`CCOC(=O)C(NC(=O)CC)(Nc1ccc(F)cc1F)C(F)(F)F` (stereo not given): the TGI in [1], in [2] and in experiment [3] was above 100 µM throughout.
For the compound `O=c1[nH]c2c(c(=O)[nH]1)C(c1ccc([N+](=O)[O-])cc1)c1c([nH]c(=O)[nH]c1=O)O2`, the TGI in experiment [1], in [2] and in experiment [3] was above 100 µM throughout.
Turning to `CCCC(=O)OC[n+]1ccc(-c2c(COC(=O)NC(C)C)c(COC(=O)NC(C)C)c3n2CCC3)cc1`, the TGI in experiment [1], in experiment [2] and in [3] was above 100 µM in each case.
Take `COc1cc(CNc2c3ccccc3nc3ccccc23)cc(OC)c1OC`: the TGI in experiment [1] worked out at 37.5 µM; in experiment [2], 19.5 µM; in [3], 8.76 µM.
The corresponding values for `Cc1cccc(C)c1N=Nc1ccc(O)c(CN(C)C)c1` are above 100 µM, above 100 µM and 58.1 µM.
With `CNC(=O)C(CC(C)C)NC(=O)C(C)NC(=O)C(Cc1ccc(OCc2ccccc2)cc1)NC(=O)C(COCc1ccccc1)NC(=O)OC(C)(C)C` (stereo not given) (Boc-S(Bn)Y(Bn)AL-NHMe; configuration not given here), the GI50 in experiment [1] was > 73.8 µM and 29.1 µM; in experiment [3] it was 42.1 µM and 15 µM. In addition, the TGI in experiment [1] is above 100 µM; in experiment [2] it was > 41.3 µM and 31.7 µM; in [3], > 100 µM and 28.2 µM.
In the case of `O=C(NCCCN(CCCCN(CCCNC(=O)c1cc(S(=O)(=O)O)cc(O)c1O)C(=O)c1cc(S(=O)(=O)O)cc(O)c1O)C(=O)c1cc(S(=O)(=O)O)cc(O)c1O)c1cc(S(=O)(=O)O)cc(O)c1O`, the TGI in experiment [1] and in [2] was above 100 µM each time.
For the compound `Cc1ccc(C(=O)Oc2ccc(/C=C3\CCC/C(=C\c4ccc(OC(=O)c5ccc(C)cc5)cc4)C3=O)cc2)cc1`, the TGI in [1], in experiment [2] and in experiment [3] was above 100 µM throughout.
With `O=S(=O)(CCC[C@H]1[C@@H](CCOCc2ccccc2)C2CCCN1O2)c1ccccc1` (stereo not given in full), the TGI in experiment [1], in [2] and in experiment [3] was above 100 µM each time.
`COc1ccc2c(c1OC)C(=O)N/C2=C\c1c(CCN(C)C)cc2c(c1OC)OCO2`: the TGI in experiment [1], in experiment [2] and in [3] was above 100 µM in each case.
With `Cc1ccccc1Nc1nc(NNC(=O)Cc2ccccc2)nc(NNC(=O)c2ccncc2)n1`, the TGI in experiment [1], in [2] and in experiment [3] was above 10 µM in each case.
For `CCOC(=O)C1(N)CC1`, the TGI in experiment [1], in experiment [2] and in experiment [3] was above 100 µM throughout.
Consider `COc1cc(C2c3cc4c(cc3OC(NCCO)C2C)OCO4)cc(OC)c1O` (stereo not given), for which the TGI was above 100 µM in experiment [1], 87.8 µM in experiment [2] and above 100 µM in experiment [3].
For the compound `C(#CC1(Nc2ccccc2)CCN(Cc2ccccc2)CC1)C1(Nc2ccccc2)CCN(Cc2ccccc2)CC1`, the TGI in [1] was 39.4 µM; in experiment [2], 43.6 µM; in experiment [3], above 100 µM.
As to `CCOC(=O)N/N=C(\CC)OCC`, the TGI in [1] and in [3] was above 100 µM throughout.
Consider `Cc1ccc(C(=O)N/N=C(\N=Nc2ccccc2Cl)c2ccc(N(C)C)cc2)cc1`, for which the TGI in experiment [1], in experiment [2] and in [3] was above 100 µM each time.
With `CN1CC2=C(NC(=S)NC2c2ccccc2Cl)/C(=C/c2ccccc2Cl)C1` (stereo not given), the TGI in experiment [1], in experiment [2] and in experiment [3] was above 100 µM throughout.
In the case of `CS(=O)(=O)O[C@H]1[C@H](O)c2ccccc2[C@@H]1N=[N+]=[N-]`, the TGI in [2] and in experiment [3] was above 100 µM in each case.
Turning to `CCC12C=CCN3CCC4(c5cc(C(c6ccc(OC)cc6)C6Cc7ccccc7N6)c(OC)cc5N(C)C4C(O)(C(=O)OC)C1O)C32` (stereo not given), the TGI in experiment [1] was 66.3 µM; in [2] it was 35.4 µM; in experiment [3], above 100 µM.
Regarding `CC(=O)n1[nH]c(=O)n(-c2ccccc2)c1=O`, the TGI in experiment [1], in [2] and in experiment [3] was above 100 µM in each case.
As to `CC(C)Cn1cnc2c(Cl)nc3ccccc3c21`, the TGI in experiment [1], in [2] and in experiment [3] was above 100 µM in each case.
As for `O=C1[C@@H](O)[C@@H]2CCCC[C@@]23CCCN13`, the TGI in [1], in experiment [2] and in experiment [3] was above 100 µM in each case.
